Assays:
[1] = system: HEK293 cells; assay: Protection against thapsigargin (TG)-induced cell death, HEK293; assay type: cell-based, human; conditions: compound 20 μM; thapsigargin 15 μM; 24 hrs
In short: (§1)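 Cells pretreated with 20 μM compound for 2 h, then thapsigargin (15 μM HEK293, 1 μM N2a) for 24 h to induce ER stress. Viability by AlamarBlue fluorescence at 2 h as % RFU of control, binned A–D by % cell rescue.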

[2] = system: N2a cells; assay: Protection against thapsigargin (TG)-induced cell death, N2a; assay type: cell-based, mouse; conditions: compound 20 μM; thapsigargin 1 μM; 24 hrs
In short: as §1

[3] = system: N2a cells; assay: Protection against hydrogen peroxide-induced cell death, N2a; assay type: cell-based, mouse; conditions: compound 40 μM; hydrogen peroxide 200 μM
In short: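 N2a cells were pretreated 2 h with compound at 40 μM, then exposed to 200 μM H2O2 for 40 min. AlamarBlue (10% v/v) was added and fluorescence read 2 h later. Viability expressed as % RFU of control, reported as % cell rescue.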

[4] = system: Ca^2+-ATPase; assay: Ca2+-ATPase assay, microsomal preparations from HEK 293 cells; assay type: biochemical, human
Protocol: A Ca^2+-ATPase assay was performed using microsomal preparations from HEK 293 cells at a series of calcium concentrations corresponding to the physiological range, relative to controls. The ATP hydrolysis rate was measured over a range of calcium concentrations in the presence of test compounds using an NADH-linked, enzyme-coupled ATPase assay adapted for 96-well microplates, with Vmax determined by fitting the ATPase calcium-dependence to the Hill function. […] CaCl2 was added to set free [Ca^2+] to the specific values.

[5] = system: ob/ob mice; assay: Effect on the level of blood glucose in ob/ob mice; assay type: in vivo, mouse; conditions: for blood glucose: 10 or 50 mg/kg i.p. once a day for 5 days, as early as day 2; for glucose level after the last injection: for over a week after the last injection
Protocol: Fasting glucose was measured at baseline and 10 hours after the administration of the test compound. Glucose levels were measured in blood samples drawn from the tail vein using the OneTouch Ultra 2 Meter (LifeScan, Inc.).

[6] = system: livers of ob/ob mice; assay: Reduction of ER stress markers in liver of ob/ob mice (western blot); assay type: in vivo, mouse; conditions: 50 mg/kg
Protocol: Proteins were analyzed by western blot and quantified. Bands were normalized to GAPDH and expressed as 100% of ob/ob+vehicle (ob). Liver tissues were homogenized with a bench-top homogenizer in an ice-cold tissue lysis buffer. The homogenized samples were centrifuged at 8,000×g for 20 min at 4° C. The lipid layer was removed and the supernatant was transferred into Eppendorf tubes. After centrifuging at 16,000×g for 60 min at 4° C., the supernatants were normalized to the same concentration and boiled at 100° C. in 1× Laemmli buffer for 5 min. The lysate was cooled to room temperature before loading for Western blot analysis. Protein lysate was resolved on SDS polyacrylamide gel and transferred onto PVDF membrane at a voltage of 100 V for 2 hrs at 4° C. The membrane was blocked in 10% blocking reagent and incubated overnight with a primary antibody in Tris-buffered saline solution/Tween (TBST)/10% blocking reagent at 4° C. After incubation, the membrane was washed three times in TBST for 20 min and incubated at room temperature with a secondary antibody in TBST/10% blocking reagent for 1 hr. The membrane was washed three times for 20 min and developed using a chemiluminescence assay system. To strip a membrane for another primary antibody, the membrane was agitated at 50° C. for 20 min in a box with stripping buffer (2% SDS and 100 mM 2-mercaptoethanol in TBS, pH 7.5). […]

[7] = Pharmacokinetics in CD-1 mice; assay type: in vivo, mouse; conditions: for F / AUC / Cmax / half-life: CD-1 mice; for F: 10 mg/kg P.O. vs 2 mg/kg i.v.; for AUC / Cmax / half-life: mouse, plasma, 2 mg/kg i.v. or 10 mg/kg P.O.
In short: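 CD-1 mice (triplicate) dosed 2 mg/kg i.v. or 10 mg/kg oral gavage, formulated 1 mg/mL in DMSO/Tween 80/water (10/10/80). EDTA plasma sampled 0.25–24 h, acetonitrile-precipitated and quantified by positive-ion MRM LC/MS/MS against internal standard; PK parameters fitted from concentration–time data.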

SMILES | HEK293 Cells (TG-induced) cell rescue [1] | N2a Cells (TG-induced) cell rescue [2] | N2a Cells (H2O2-induced) cell rescue [3] | increase in baseline ATPase activity [4] | blood glucose [5] | glucose level after the last injection [5] | phosphorylation of PERK and elF2α [6] | F [7] [%] | AUC [7] [µg·h/mL] | Cmax [7] [µM] | half-life [7] [min] | pharmacokinetic properties as measured by CMAX, AUC and F (%) ([7]; compared with other SERCA modulators, see Table 6)
Cc1ccc2cccc(NC(=O)c3ccc(OC(C)C)cc3)c2n1 [Compound A12, 4-Isopropoxy-N-(2-methylquinolin-8-yl)benzamide] | A (A represents a value greater than 50% cell rescue) | B (B represents a value between 10% to 50% cell rescue) | B (B represents a value between 10% to 50% cell rescue) | 10-15% | significantly lowered | identical to lean mice | significantly reduced | 2.3 | 0.0251 | 0.2 | 13.4 | –
Cc1ccc2cccc(NC(=O)c3ccc(N(C)C)cc3)c2n1 [Compound C18, 4-N,N-Dimethylamino-N-(2-methylquinolin-8-yl)benzamide] | A (A represents a value greater than 50% cell rescue) | A (A represents a value greater than 50% cell rescue) | B (B represents a value between 10% to 50% cell rescue) | greater than 15% | significantly lowered | identical to lean mice | significantly reduced | 35 | 0.38 | 0.9 | 53.4 | significantly improved pharmacokinetic properties

From patent US11890279B2, “Quinolines that modulate SERCA and their use for treating disease” (Neurodon Corporation, priority 2020, dated 2024)
